Where a name gives a salt, the structure may show the parent alone. Read-outs that look alike come from different tables or passages of the source.
Legend:
[1] = system: sodium channel of synaptosome of rat cerebral cortex; assay: Assessment for sodium channel of synaptosome of rat cerebral cortex (SBFI); assay type: cell-based
Method: In the present experiment the synaptosome which was extracted from rat cerebral cortex was used. After sodium ion-sensitive dye, SBFI was taken in, the synaptosome was reacted with the respective tested substances (3 samples in 6 concentrations) at room temperature for 15 minutes in a 96 wells plate. The sodium channel inhibitory activity was measured using FDSS2000 of HAMAMATSU Photonics Co., Ltd. The sodium ion concentration in the synaptosome was measured once per 5 seconds using the fluorescent intensity of SBFI as an index. After measuring the control value 10 times, Veratridine was added so that the final concentration was 20 μM, and further measurement was carried out 30times. The inhibitory activity value of the tested substances for sodium channel was calculated, setting the action only by a measurement solution without the tested substance, as 0%, and the inhibitory activity caused by 2 μM of TTX which was a positive control, as 100%, as an inhibitory activity value corresponding to this action, using the increase of the fluorescent intensity of SBFI to the control value which was generated after addition of Veratridine, as an index.

rabbit atrial muscle = assay: Assessment for rabbit atrial muscle, Vmax; conditions: Test Example 4, right atrial muscle, stimulation frequency 4 Hz, 15 minutes
Method: The specimen of the right atrial muscle which was enucleated from rabbit was used for the present experiment. The electrical stimulation was applied for the right atrial muscle which was enucleated, under conditions: a stimulation duration of 1 mess; a stimulation frequency of 4 Hz; and a stimulation intensity of about 1.2-fold of the threshold. The stimulation was provided from 30 minutes to 60 minutes before start of the experiment, and the condition of the specimen was stabilized. The action potential was recorded according to a glass microelectrode method. 3 M KCl was charged in the glass electrode, inserted in the specimen of the right atrium, and the action potential was recorded. Vmax is the parameter of the maximum upstroke slope of the action potential recorded, and a value which was automatically calculated by an action potential analysis soft (CAPA 1.23 manufactured by Physiotec. Co., Ltd.) was used. After the action potential in a normal Tyrode solution was recorded as control, the action potential after flowing the tested substances at respective concentrations for 15 minutes was recorded. The action of the tested substance for Vmax was calculated as an IC50 value.

[2] = system: spontaneous nerve discharge of cut left saphenous nerve; assay: Suppression of spontaneous nerve discharge (ectopic firing); assay type: in vivo; conditions: Test Example 5, rat, intravenous catheter, urethane anesthetized; for ED50: read-out: Ectopic Firing (ID50 mg/kg)
Method: In order to assess the suppression action for spontaneous nerve discharge, the experiment was carried out by a method below, referring to “Burchiel, K J., Exp. Nuerol., 102, 249-253 (1988)”. Namely, for the rat in which spontaneous discharge was observed, the left saphenous nerve was cut off nearby knee articulatio before 1 week or more, and around 3 mm of the nerve was cut off so that the nerve was not adhered again. The left saphenous nerve was exposed under urethane (1 g/kg body weight) anesthetized, and about 1 cm of adjacent portion from the cut portion was peeled from a periphery tissue. Further, a catheter was preliminarily inserted in the vein of a right neck for administration of a compound. The peeled nerve was mounted on a platinum hook electrode, and liquid paraffin was put on it so that the nerve was not dried. The electrode was connected with a fine electrode amplifier, and the value was recorded on a computer through an AD/converter from an oscilloscope. The nerve discharge recorded was assessed by the number of ignition per 10 seconds using an analysis soft (AcqKnowledge).

[3] = read-out: SBFI (IC50 μM); Test Example 3; Veratridine 20 μM; 2 μM TTX as 100%
[4] = Test Example 3; Veratridine 20 μM; 2 μM TTX as 100%; read-out: SBFI (IC50 μM)

Compound | IC50 [1, 3] [µM] | IC50 (rabbit atrial muscle; Oryctolagus cuniculus, 0.25 h) [µM] | ED50 [2] [mg/kg] | IC50 [1, 4] [µM] | IC50 (rabbit atrial muscle) [µM] | Ectopic Firing (ID50 mg/kg) [2] [mg/kg]
Cc1ccccc1CCC1CCN(Cc2ccc[nH]c2=O)CC1 [Example 285, 1-[(2-Oxo-1,2-dihydro-3-pyridinyl)methyl]-4-[2-(2-methylphenyl)ethyl]piperidine] | 7.7 | 2.9 | 0.13 | – | – | –
O=c1[nH]cc(Br)cc1CN1CCC(CCc2cccc3c2OCO3)CC1 [Example 291, 1-[(5-Bromo-2-oxo-1,2-dihydro-3-pyridinyl)methyl]-4-[2-[2,3-(methylenedioxy)phenyl]ethyl]piperidine] | – | – | – | 14.5 | 6 | 0.1
O=c1[nH]cc(Cl)cc1CN1CCC(CCc2ccccc2OCc2ccccc2)CC1 [Example 299] | 5.3 | 50 | 0.1 | – | – | –
O=c1[nH]cc(Cl)cc1CN1CCC(CCc2ccccc2OCC2CCCCC2)CC1 [Example 301, 1-[(5-Chloro-2-oxo-1,2-dihydro-3-pyridinyl)methyl]-4-[2-[2-(cyclohexylmethyloxy)phenyl]ethyl]piperidine] | 6.5 | 100 | 0.18 | – | – | –
O=C(O)C(=O)O.O=c1[nH]cccc1CN1CCC(CCc2ccccc2OCC2CCCCC2)CC1 [Example 302, 1-[(2-Oxo-1,2-dihydro-3-pyridinyl)methyl]-4-[2-[2-(cyclohexylmethyloxy)phenyl]ethyl]piperidine oxalate] | 1.2 | 22.5 | 0.14 | – | – | –
O=C(O)C(=O)O.O=c1[nH]cccc1CN1CCC(CCc2ccccc2CCc2ccccc2)CC1 [Example 306, 1-[(2-Oxo-1,2-dihydro-3-pyridinyl)methyl]-4-[[2-(2-phenylethyl)phenyl]ethyl]piperidine oxalate] | 1.3 | 1.9 | 0.17 | – | – | –
CC(C)COc1ccccc1CCC1CCN(Cc2ccc[nH]c2=O)CC1.O=C(O)C(=O)O [Example 308, 1-[(2-Oxo-1,2-dihydro-3-pyridinyl)methyl]-4-[2-[2-(isobutyloxy)phenyl]ethyl]piperidine oxalate] | 0.5 | 3.1 | 0.22 | – | – | –
O=C(O)C(=O)O.O=c1[nH]cccc1CN1CCC(CCc2ccccc2OCCc2ccccc2)CC1 [Example 309, 1-[(2-Oxo-1,2-dihydro-3-pyridinyl)methyl]-4-[2-[2-(2-phenylethoxy)phenyl]ethyl]piperidine oxalate] | 1 | 6.3 | 0.19 | – | – | –
O=C(O)C(=O)O.O=c1[nH]cccc1CN1CCC(CCc2ccccc2OCC2CCCC2)CC1 [Example 311, 1-[(2-Oxo-1,2-dihydro-3-pyridinyl)methyl]-4-[2-[2-(cyclopentylmethyloxy)phenyl]ethyl]piperidine oxalate] | 0.7 | 2 | 0.13 | – | – | –
Cl.Cl.O=c1[nH]cccc1CN1CCC(CCc2ccccc2NCc2ccccc2)CC1 [Example 313, 1-[(2-Oxo-1,2-dihydro-3-pyridinyl)methyl]-4-[2-[2-(benzylamino)phenyl]ethyl]piperidine dihydrochloride] | 1.5 | 8.6 | 0.16 | – | – | –
O=c1[nH]cc(Cl)cc1CN1CCC(CCc2cccc3c2OCO3)CC1 [Example 319] | 10.2 | 10 | 0.082 | – | – | –
O=c1[nH]cc(Cl)cc1CN1CCC(CCc2ccccc2F)CC1 [Example 320] | 17 | 14.8 | 0.041 | – | – | –
CC(C)COc1ccccc1CCC1CCN(Cc2cc(Cl)c[nH]c2=O)CC1.O=C(O)C(=O)O [Example 323, 1-[(5-Chloro-2-oxo-1,2-dihydro-3-pyridinyl)methyl]-4-[2-[2-(isobutyloxy)phenyl]ethyl]piperidine oxalate] | 4.8 | 3.9 | 0.083 | – | – | –
O=C(O)C(=O)O.O=c1[nH]cccc1CN1CCC(CCc2ccccc2OC(F)(F)F)CC1 [Example 326, 1-[(2-Oxo-1,2-dihydro-3-pyridinyl)methyl]-4-[2-[2-(trifluoromethoxy)phenyl]ethyl]piperidine oxalate] | 1.9 | 3.98 | 0.18 | – | – | –
O=c1[nH]cccc1CN1CCC(C=C(c2ccccc2)c2ccccc2)CC1 [Example 333, 1-[(2-Oxo-1,2-dihydro-3-pyridinyl)methyl]-4-(2,2-diphenyl-1-ethenyl)piperidine] | 5.4 | 4.9 | 0.15 | – | – | –
O=C(O)C(=O)O.O=c1[nH]cccc1CN1CCC(/C=C/c2ccccc2OCc2ccccc2)CC1 [Example 338, 1-[(2-Oxo-1,2-dihydro-3-pyridinyl)methyl]-4-[(E)-2-[2-(benzyloxy)phenyl]-1-ethenyl]piperidine oxalate] | 1.2 | 11.4 | 0.19 | – | – | –
O=c1[nH]cc(Cl)cc1CN1CCC(COc2ccc(F)cc2F)CC1 [Example 370, 1-[(5-Chloro-2-oxo-1,2-dihydro-3-pyridinyl)methyl]-4-[(2,4-difluorophenoxy)methyl]piperidine] | 33.6 | 45 | 0.081 | – | – | –
O=c1[nH]cc(Cl)cc1CN1CCC(COc2cc(F)ccc2F)CC1 [Example 372, 1-[(5-Chloro-2-oxo-1,2-dihydro-3-pyridinyl)methyl]-4-[(2,5-difluorophenoxy)methyl]piperidine] | 21.8 | 9.3 | 0.11 | – | – | –
O=c1[nH]cccc1CN1CCC(COc2ccccc2Cl)CC1 [Example 376, 1-[(2-Oxo-1,2-dihydro-3-pyridinyl)methyl]-4-[(2-chlorophenoxy)methyl]piperidine] | 20.3 | – | 0.07 | – | – | –
O=c1[nH]c2ccccc2cc1CN1CCC(CCc2cccc3c2OCO3)CC1 [Example 380, 1-[(2-Oxo-1,2-dihydro-3-quinolinyl)methyl]-4-[2-[2,3-(methylenedioxy)phenyl]ethyl]piperidine] | – | – | – | 3.9 | 8.6 | 0.1
O=c1[nH]c2ccccc2cc1CN1CCC(CCc2cccc(-c3ccccc3)c2)CC1 [Example 381, 1-[(2-Oxo-1,2-dihydro-3-quinolinyl)methyl]-4-[2-(3-(phenylphenyl)ethyl]piperidine oxalate] | 3 | 100 | 0.56 | – | – | –
